Values of other authors, collected in PubChem BioAssay AID1259409 (Chemical Carcinogenesis Research Information System (CCRIS), 2018).

Test system: rodent chemically induced tumor inhibition, incidence and multiplicity
Assay: CCRIS tumor inhibitor studies
Conditions: Species: MOUSE, Strain/Sex: ICR/FEMALE, Promoter: NONE USED

Compound | tumour outcome (control, treated, inhibition, significance) (Carcinogen: BENZO[A]PYRENE, 50-32-8, Dose [Inhibitor]: 5 MG IN 0.1 ML ACETONE 3/WK ADMINISTERED SIMULTANEOUSLY WITH CARCINOGEN FOR DURATION OF STUDY (STUDY DURATION: 440 D), Route [Inhibitor]: DERMAL, Target Tissue: Type of Lesion: SKIN: PAPILLOMA, Dose [Carcinogen]: 5 UG IN 0.1 ML ACETONE THAT ALSO CONTAINED AGENT 3/WK) | tumour outcome (control, treated, inhibition, significance) (Carcinogen: BENZO[A]PYRENE, 50-32-8, Dose [Inhibitor]: 5 MG IN 0.1 ML ACETONE 3/WK ADMINISTERED SIMULTANEOUSLY WITH CARCINOGEN FOR DURATION OF STUDY (STUDY DURATION: 440 D), Route [Inhibitor]: DERMAL, Target Tissue: Type of Lesion: SKIN: SQUAMOUS CARCINOMA, Dose [Carcinogen]: 5 UG IN 0.1 ML ACETONE THAT ALSO CONTAINED AGENT 3/WK) | tumour outcome (control, treated, inhibition, significance) (Carcinogen: 1,2-DIMETHYLHYDRAZINE, 540-73-8, Dose [Inhibitor]: 0, 20 MG/KG 3/WK FOR 24 WK BEGINNING FIRST WK OF CARCINOGEN TREATMENT (STUDY DURATION: 28 WK), Route [Inhibitor]: GAVAGE, Target Tissue: Type of Lesion: COLON: TUMOR, Dose [Carcinogen]: 20 MG/KG 1/WK FOR 20 WK) | tumour outcome (control, treated, inhibition, significance) (Carcinogen: 1,2-DIMETHYLHYDRAZINE, 540-73-8, Dose [Inhibitor]: 0, 20 MG/KG 3/WK FOR 28 WK BEGINNING FIRST WK OF CARCINOGEN TREATMENT (STUDY DURATION: 28 WK), Route [Inhibitor]: GAVAGE, Target Tissue: Type of Lesion: COLON: TUMOR, Dose [Carcinogen]: 20 MG/KG 1/WK FOR 20 WK) | tumour outcome (control, treated, inhibition, significance) (Carcinogen: 1,2-DIMETHYLHYDRAZINE, 540-73-8, Dose [Inhibitor]: 0, 40 MG/KG 3/WK FOR 24 WK BEGINNING FIRST WK OF CARCINOGEN TREATMENT (STUDY DURATION: 28 WK), Route [Inhibitor]: GAVAGE, Target Tissue: Type of Lesion: COLON: TUMOR, Dose [Carcinogen]: 20 MG/KG 1/WK FOR 20 WK) | tumour outcome (control, treated, inhibition, significance) (Carcinogen: 1,2-DIMETHYLHYDRAZINE, 540-73-8, Dose [Inhibitor]: 0, 40 MG/KG 3/WK FOR 28 WK BEGINNING FIRST WK OF CARCINOGEN TREATMENT (STUDY DURATION: 28 WK), Route [Inhibitor]: GAVAGE, Target Tissue: Type of Lesion: COLON: TUMOR, Dose [Carcinogen]: 20 MG/KG 1/WK FOR 20 WK)
Oc1cccc(O)c1O | 16/50 (32%), 40/50 (80%), -150%, not calculated | 12/50 (24%), 33/50 (66%), -175%, not calculated |  |  |  | 
CC1(S(=O)(=O)O)CC(=O)c2ccccc2C1=O (stereo unspecified) |  |  | 9/13 (69%), 4/13 (31%), 55%, p<0.05 | 13/13 (100%), 8/13 (62%), 38%, p<0.05 | 9/13 (69%), 4/13 (31%), 55%, p<0.05 | 13/13 (100%), 8/13 (62%), 38%, p<0.05
